Patent US4568685A, “N-[(1H-1,2,4-Triazol-1-yl)alkyl]-arylamides” (American Cyanamid Company, priority 1984, dated 1986)
Where a name gives a salt, the structure may show the parent alone.

Test system: spontaneously hypertensive rats
Assay: Hypotensive activity in spontaneously hypertensive rats (mean arterial blood pressure)
Type: in vivo, spontaneously hypertensive rats of the Okamoto strain
Conditions: gavage, about 100 mg/kg or less, two doses 24 hours apart, measured at about 28 hours; average MABP of the SHR 170 ±1.5 mm Hg; number of rats in parentheses
Protocol: Hypotensive Activity in Spontaneously Hypertensive Rats
The novel compounds of the present invention are active hypotensive agents and were tested for hypotensive activity by the method of P. S. Chan and D. Poorvin, Clinical and Experimental Hypertension, 1 (6), 817-830 (1979). Male, 16 week old, spontaneously hypertensive rats of the Okamoto strain, from Taconic Farms, Germantown, N.Y., having an average mean arterial blood pressure of 170 ±1.5 mm of mercury are used in the test. One to 3 rats are used per test compound. A rat is dosed by gavage with a test compound, suspended in approximately 2% pre-boiled starch at a concentration of about 50 mg/ml, at a dose of about 100 mg/kg of body weight or less, with approximately 0.9% sodium chloride loading at a dose of about 25 ml/kg of body weight. A second identical dose of the test compound, without sodium chloride loading, is given about 24 hours later. At about 28 hours after the initial dose the mean arterial blood pressure is measured by the method of Chan and Poorvin vide supra. The procedure is repeated in a second and third rat when necessary.

Structure (SMILES)	MABP (mean arterial blood pressure) [mm Hg]
O=C(Cc1cccc2ccccc12)NCCCCn1cncn1 [N--[4-(1H--1,2,4-triazol-1-yl)butyl]-1-naphthalene acetamide, fumarate]	134
O=C(NCCCn1cncn1)c1ccc(Cl)c(Cl)c1 [Example 12, 3,4-Dichloro-N-[3-(1H-1,2,4-triazol-1-yl)propyl]benzamide]	150
O=C(C=Cc1ccc(Cl)cc1)NCCCn1cncn1 [Example 29, 3-(4-chlorophenyl)-N--[3-(1H--1,2,4-triazol-1-yl)propyl]-2-propenamide]	137
CS(=O)(=O)c1ccc(C(=O)NCCCn2cncn2)cc1 [Example 32, 4-(methylsulfonyl)-N--[3-(1H--1,2,4-triazol-1-yl)propyl]benzamide]	110
N#Cc1ccc(C(=O)NCCCn2cncn2)cc1 [Example 19, 4-cyano-N--[3-(1H--1,2,4-triazol-1-yl)propyl]benzamide]	119
O=C(NCCCCn1cncn1)c1ccc(Cl)c(Cl)c1 [Example 5, 3,4-Dichloro-N-[4-(1H-1,2,4-triazol-1-yl)butyl]benzamide]	141
CC(C)(C)c1ccc(C(=O)NCCCn2cncn2)cc1 [Example 13, 4-(1,1-dimethylethyl)-N--[3-(1H--1,2,4-triazol-1-yl)propyl]benzamide]	123
CN(C)c1ccc(C(=O)NCCCn2cncn2)cc1 [Example 37, 4-(dimethylamino)-N--[3-(1H--1,2,4-triazol-1-yl)propyl]benzamide]	117
O=C(NCCCn1cncn1)c1ccc(Br)cc1 [Example 23, 4-bromo-N--[3-(1H--1,2,4-triazol-1-yl)propyl]benzamide]	147
O=C(NCCCCn1cncn1)c1ccc(Br)cc1 [Example 8, 4-bromo-N--[4-(1H--1,2,4-triazol-1-yl)butyl]benzamide]	137
O=C(NCCCn1cncn1)c1ccccc1 [Example 24, N--[3-(1H--1,2,4-triazol-1-yl)propyl]benzamide]	124
O=C1c2ccccc2C(=O)N1CCCCn1cncn1 [2-[4-(1H-1,2,4-triazol-1-yl)butyl]-1H-isoindol-1,3(2H)-dione]	119
O=C(NCCCCn1cncn1)c1ccccc1-c1ccccc1 [Example 6, N--[4-(1H--1,2,4-triazol-1-yl)butyl] [1,1'-biphenyl]-2-carboxamide, fumarate]	145
O=C(NCCCn1cncn1)c1ccc(I)cc1 [Example 27, 4-Iodo-N-[3-(1H-1,2,4-triazol-1-yl)propyl]benzamide]	128
Cc1ccc(C(=O)NCCCn2cncn2)cc1 [Example 21, 4-methyl-N--[3-(1H--1,2,4-triazol-1-yl)propyl]benzamide]	145
